Article PMC9671962 (Communications Biology, 2022)
Values joined by “and” are separate entries in the source; they are usually repeats but may differ in a detail not shown here. Equal entries are not always repeated. Where two headings read alike, the source gives them in different places.

Columns and labels:
[1] = format: in vivo, CB57 SCID mice
Method: Toxicity studies were done in nontumor bearing CB-17 SCID mice (Taconic Biosciences). […] Each arm had n = 10 mice (5 male, 5 female mice). […] The vehicle group received an equal volume of saline (placebo). Weights were obtained twice weekly and mice were monitored daily for signs of toxicity. […] On target hematological and marrow toxicity which was evaluated by complete blood counts and marrow colony formation assay. An additional study was performed under identical conditions to evaluate additive dose effects. […] Each treatment group was composed of equal numbers of male and female mice to rule out gender-specific effects (n = 4 per treatment group per time point). Mice were followed for signs of acute toxicity for 2 weeks and 4 weeks before euthanasia. An additional group (n = 4) treated at 36 MBq/kg was euthanized after 72 h to assess early signs of toxicity by colony formation assays. This time course was chosen to best capture the nadir of bone marrow suppression. After euthanasia, blood was collected and femurs were dissected and processed for histopathology and bone marrow evaluation.
Su p p lemen t ary Fig u res
Supplementary Fi g u re 1 : Maximum tolerated dose finding studies for [211At]PT T adm inistered as 4
dose fractions given twice weekly in male and female CB57 SCID mice (n=3 per sex per dose level).
(1 picture or pasted object on this page, not shown here)

[2] = test system: NB-EBC1x; experiment: Pre-clinical efficacy study, NB-EBC1x PDX; format: in vivo, mouse; details: for EFS by AOC method / Tumor response (% growth from study initiation at ~ 200 mm3): single mouse; for Tumor Volume: NBEBC1 tumor re-challenge (24 MBq/kg/fraction x 4)
Method: Patient demographics and genetic characteristics are listed in (Supplementary Tables 1, 2)[17]. The maximum tolerated dose (MTD) was determined to be 36 MBq/kg administered by intra-peritoneal injection twice weekly for a total of 4 dose fractions and this fractionated regimen was used in all studies (Supplementary Fig. 1)[18],[19]. […] Nine of 11 PDX models were MYCN amplified (Fig. 1b), which is a hallmark of high-risk neuroblastoma. Tumor response was measured as the maximum percent decrease in tumor volume after treatment and event-free survival (EFS) was measured by the area over the curve method with tumor events pre-defined by tumor growth exceeding 2 cm[3],[18].
The use of 2 mice per arm was based on the previously reported statistical analysis. PDX tumors were implanted into the right flank of 5 to 6-weeks old female mice weighing about 20–25 grams. […] Two additional dose levels of 12, and 24 MBq/kg/fraction were assessed in a subset of models and were administered as stated above. In two models treated at the 24 MBq/kg/fraction dose level we re-challenged tumor response at the time of tumor progression with an additional 4 dose fractions at 24 MBq/kg/fraction given twice weekly. Doses were prepared in 500 µL total volume. An equal volume of saline was used for the vehicle group. Tumors were measured using a digital caliper at the initiation of the study and two times per week during the treatment period. Tumor volumes were calculated as volume = ([…]∗0.5236)/1000. Weights were obtained twice weekly and mice were monitored daily for signs of toxicity. […] Tumor response was assessed by best response defined as greatest reduction in tumor volume following the last dose and is presented as percent change in tumor volume. Event-free survival was determined by area over the curve method that calculates the time to tumor event, which was defined as tumors reaching or exceeding a size ≥ 2 cm^3.
Animal studies were performed in female mice due to the lack of sex-related differences for [^211At]PTT tolerability from initial dose response studies performed in female and male mice. Female mice were chosen due to their underlying behavior towards other study subjects that reduced nonstudy-related causes for decreased wellness. Pre-clinical efficacy studies were performed through “single mouse testing” to more closely recapitulate a clinical trial. […] Number size for treatment groups was determined by model tumor growth reproducibility, which was previously shown to have less than 5% normal variation with at least two animals. Statistical tests for tumor response and event-free survival (EFS) were performed as a grouped analysis that included all tumor models treated at each respective dose level (n = 2 per model per dose level). Statistical differences between treatment groups for tumor response was performed by paired-model T-test that compared reduction in tumor volume for the 36 MBq/kg dose level vs. 24 MBq/kg or 12 MBq/kg. Event free survival was measured by area over the curve method to quantify time to event, which was set as tumor growth exceeding 2 cm[3],[19]. Differences in EFS were tested across all treated models for each respective dose level, and against untreated controls, by paired-model ANOVA analysis. Associations of drug target expression and response were performed by linear regression analysis of EFS and PARP1 mRNA expression. Genetic signatures were visually presented as a function of EFS and no statistical tests were applied. Blood and marrow toxicity studies were performed with n = 5 sample sizes and powered to detect >20% differences between untreated controls and treated animals. Results were tested for significance by one-way ANOVA comparison from untreated controls. Marrow colony formation assays were performed in replicates of 2 for each mouse subject, dependent on marrow isolation, and all replicates are included in final analyses. […]

[3] = NB-EBC1x, 24 MBq/kg/fraction x 4 fractions
[4] = NB-EBC1x, 36 MBq/kg/fraction x 4 fractions

O=C1NCCn2c(-c3ccc([211At])cc3)nc3cccc1c32 [[^211At]PTT, Astatine-211-parthanatine]
maximum tolerated dose (MTD) ([1]; intra-peritoneal, twice weekly, total of 4 dose fractions): 36 MBq/kg
maximum tolerated dose (MTD) ([1]; x4 fractionated regimen, SCID PDX mice): 36 MBq/kg/fraction
EFS1 (initial treatment) ([2]; NB-EBC1x, 24 MBq/kg/fraction x 4, re-challenged mouse n = 1): 45
EFS by AOC method [2, 3]: 58.4 days
Tumor response (% growth from study initiation at ~ 200 mm3) [2, 3]: -100%
EFS by AOC method [2, 4]: 90.4 days and 97.6 days and 90.485 days and 97.6925 days
Tumor response (% growth from study initiation at ~ 200 mm3) [2, 4]: -100%
EFS2 (re-challenge treatment) ([2]; NB-EBC1x, re-challenge 24 MBq/kg/fraction x 4 at tumor progression, progressing disease): 47
Tumor Volume ([2]; week 0): 0.17 cm3
Tumor Volume ([2]; week 0.6): 0.28 cm3
Tumor Volume ([2]; week 1.1): 0.24 cm3
Tumor Volume ([2]; week 1.6): 0.04 cm3
Tumor Volume ([2]; week 2): 0.01 cm3
Tumor Volume ([2]; week 2.6): 0 cm3
Tumor Volume ([2]; week 3.1): 0 cm3
Tumor Volume ([2]; week 3.6): 0 cm3
Tumor Volume ([2]; week 4.1): 0 cm3
Tumor Volume ([2]; week 4.6): 0 cm3
Tumor Volume ([2]; week 5): 0.05 cm3
Tumor Volume ([2]; week 5.6): 0.32 cm3
Tumor Volume ([2]; week 6): 0.41 cm3
Tumor Volume ([2]; week 6.6): 1.05 cm3
Tumor Volume ([2]; week 7): 0.73 cm3
Tumor Volume ([2]; week 7.6): 0.34 cm3
Tumor Volume ([2]; week 8): 0.16 cm3
Tumor Volume ([2]; week 8.6): 0.03 cm3
Tumor Volume ([2]; week 9): 0.07 cm3
Tumor Volume ([2]; week 9.6): 0.07 cm3
Tumor Volume ([2]; week 10): 0 cm3
Tumor Volume ([2]; week 10.6): 0 cm3
Tumor Volume ([2]; week 11): 0 cm3
Tumor Volume ([2]; week 11.6): 0 cm3
Tumor Volume ([2]; week 12): 0 cm3
Tumor Volume ([2]; week 12.6): 0.02 cm3
Tumor Volume ([2]; week 13): 0.06 cm3
Tumor Volume ([2]; week 13.6): 0.34 cm3
Tumor Volume ([2]; week 14): 0.98 cm3
